From US20150328109A1, “DERMAL COMPOSITIONS CONTAINING UNNATURAL HYGROSCOPIC AMINO ACIDS” (MEDPHARM LIMITED, priority 2012, published 2015)

Assay: In vitro permeation of Acyclovir through epidermal membrane in Franz type diffusion cells after amino acid pre-treatment
Assay type: in vitro ADME, Human
Conditions: maximal enhancement of the drug's permeation by amino acid pre-treatment
Protocol: Acyclovir (ACV), metronidazole and diclofenac diethylamine (DDEA) were analysed using HPLC, using of a Waters Alliance Separations Module and Waters detector. The temperature of the column and samples were maintained at 45±2° C. and 5.0±2° C., respectively. A Kinetix™ C-18 (Phenomenex, USA) column (150 mm×4.6 mm 5 μm particle size) with a guard column (Phenomenex USA, C-18 4.0×3.0 mm) was employed as the stationary phase. The mobile phase was three part; mobile phase A, water; mobile phase B, methanol; and mobile phase C, 10 mM ammonium phosphate buffer pH 2.5. The mobile phase was run using a gradient flow (Table 2) with a flow rate of 0.8 mL/min. Samples were run for 12 minutes with an injection volume of 10 μL. Acyclovir, metronidazole and DDEA were processed at a wavelength of 276 nm, with approximate retention times of 4.7, 6.5, and 8.7 min, respectively. Calibration curves were constructed from a series of standards prepared by serial dilution in conjunction with separately prepared quality controls. […] Data were recorded and analysed using Empower Pro^3 Software. […]
Three experiments were performed, one for each API (Acyclovir, metronidazole and DDEA). […] The integrity of the epidermal membrane was assessed using electrical resistance to ensure the epidermal membrane was intact. […] Samples were analysed using HPLC and the level of each API that had permeated was quantified.

Structure (SMILES): Nc1nc2c(ncn2COCCO)c(=O)[nH]1 [ACV, Acyclovir]
- ER (drug absorption enhancement factor): 12
